From ChEMBL document CHEMBL1201862, “PubChem BioAssay data set” (2004) come the findings set out here.

Holding throughout (experiment): NCI anticancer screen, dose series, 48 h
Assay [1] deals with Malme-3M.
Assay [2] deals with MDA-MB-231.
The test system of assay [3] is M14.
The subject of assay [4] is A498.
Assay [5] deals with COLO 205.
For assay [6], the system named is RXF 393.
For assay [7], the system named is UACC-257.
Assay [8] concerns 786-0.
For assay [9], the system named is NCI-H23.
The subject of assay [10] is ACHN.
Assay [11] relates to EKVX.
For assay [12], the system named is SK-MEL-2.
The test system of assay [13] is UACC-62.
Assay [14] concerns MDA-N.
Assay [15] concerns KM12.
Assay [16] concerns K562.
The subject of assay [17] is HL-60.
Assay [18] deals with OVCAR-4.
In assay [19] the test system is HOP-62.
The subject of assay [20] is MDA-MB-435.

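How tested: cells in 96-well plates exposed to compound for 48 hours at five concentrations. Here, GI50 denotes the concentration required for 50% inhibition of growth.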 The source made the active and inactive calls. No stated cut-off is given here; in the data, active = GI50 up to about 1.1 µM and inactive = higher. A value given as a limit tells only on which side of the number the result lay.

Consider `O=C1Cc2c([nH]c3ccc([N+](=O)[O-])cc23)-c2ccccc2N1` [ALSTERPAULLONE], for which the GI50 was 9.08 µM (inactive) in assay [1]; 1.16 µM (inactive) in assay [2]; 0.453 µM (active) in assay [3]; 0.822 µM (active) in assay [4]; 0.235 µM (active) in assay [5]; 0.284 µM (active) in assay [6]. Also, the GI50 in assay [7] is 1.11 µM (active); in assay [8], 0.406 µM (active); in assay [9], 0.557 µM (active); in assay [10], 0.288 µM (active); in [11], 0.652 µM (active); in assay [12] it was 0.713 µM (active). Further, the GI50 in assay [13] is 0.94 µM (active); in assay [14], 0.367 µM (active); in [15], 0.165 µM (active); in assay [16], 0.774 µM (active); in [17], 0.261 µM (active); in assay [18], 0.498 µM (active). Besides, the GI50 in [19] was 0.279 µM (active); in assay [20], 0.499 µM (active).
Take `CN(C)CC1COC2Cc3ccccc3C1O2` (stereo not drawn): the GI50 in [1], in [2], in assay [3], in [4], in [5] and in [6] was > 100 µM (inactive) each time. Also, the GI50 in [7], in assay [8], in [9], in assay [10], in [11] and in assay [12] was > 100 µM (inactive) in each case. The GI50 is > 100 µM (inactive) in [14]; > 100 µM (inactive) in assay [15]; > 100 µM (inactive) in assay [16]; 72.6 µM (inactive) in assay [17]; > 100 µM (inactive) in [18]; > 100 µM (inactive) in assay [19]. Further, the GI50 in assay [20] is > 100 µM (inactive).
Take `O=C1N[C@@H](c2c[nH]c3cc(Br)ccc23)C(=O)N[C@H]1c1c[nH]c2cc(Br)ccc12`: the GI50 in assay [1] is > 100 µM (inactive); in assay [2] it was 17.1 µM (inactive); in assay [3], > 100 µM (inactive); in [4] it was > 100 µM (inactive); in assay [5] it was > 100 µM (inactive); in assay [6] it was > 100 µM (inactive). Further, the GI50 in assay [7], in assay [8], in [9], in assay [10], in assay [11] and in assay [12] was > 100 µM (inactive) each time. Besides, the GI50 in assay [13] is > 100 µM (inactive); in [14] it was > 100 µM (inactive); in [15], 83.9 µM (inactive); in [16], > 100 µM (inactive); in [17] it was > 100 µM (inactive); in assay [18], > 100 µM (inactive). The GI50 in assay [19] and in assay [20] was > 100 µM (inactive) in each case.
For `CCCCCCNC(=O)c1cc(CCc2cc(O)ccc2O)ccc1O`, the GI50 in assay [1] is 2.35 µM (inactive); in assay [2] it was 2.25 µM (inactive); in assay [3], 6.05 µM (inactive); in assay [4], 4.24 µM (inactive); in assay [5], 10.9 µM (inactive); in assay [6] it was 1.8 µM (inactive). The GI50 in [7] was 2.2 µM (inactive); in [8], 2.04 µM (inactive); in assay [9] it was 7.89 µM (inactive); in assay [10] it was 2.66 µM (inactive); in assay [11] it was 5.75 µM (inactive); in assay [12] it was 2.74 µM (inactive). In addition, the GI50 in assay [14] was 2.66 µM (inactive); in [15], 4.46 µM (inactive); in assay [16], 2.38 µM (inactive); in assay [17] it was 0.723 µM (active); in assay [18] it was 2.47 µM (inactive); in assay [19], 6.24 µM (inactive). Also, in [20], the GI50 is 3.61 µM (inactive).
`CCCCCC(/C=N/N)C(O)(C(F)(F)F)C(F)(F)F` (stereo not drawn): the GI50 in assay [1] is 1.36 µM (inactive); in assay [2], 4.07 µM (inactive); in [3] it was 4.47 µM (inactive); in assay [4], 2.44 µM (inactive); in assay [5], 1.86 µM (inactive); in assay [6] it was 7.28 µM (inactive). Also, the GI50 in [7] is 5 µM (inactive); in assay [8] it was 2.97 µM (inactive); in assay [9], 3.58 µM (inactive); in assay [10], 4.15 µM (inactive); in assay [11] it was 2.58 µM (inactive); in assay [12], 3.37 µM (inactive). For the same molecule, the GI50 is 3.9 µM (inactive) in assay [13]; 3.55 µM (inactive) in assay [14]; 4.44 µM (inactive) in [15]; > 10 µM (inactive) in assay [17]; 5.35 µM (inactive) in assay [18]; 4.78 µM (inactive) in [19]. Moreover, the GI50 in [20] was 3.53 µM (inactive).
For the molecule `CCOc1nc(-c2ccccc2)cc(-c2ccc(N3CCOCC3)cc2)c1C#N`, the GI50 in [1], in [2], in [3], in assay [4], in [5] and in [6] was > 100 µM (inactive) each time. Also, the GI50 in assay [7] was 19.1 µM (inactive); in [8], > 100 µM (inactive); in assay [9] it was > 100 µM (inactive); in assay [10], > 100 µM (inactive); in assay [11], > 100 µM (inactive); in assay [12], > 100 µM (inactive). Moreover, the GI50 in assay [14], in assay [15], in assay [16], in assay [17], in assay [18] and in [19] was > 100 µM (inactive) throughout. For the same molecule, the GI50 in assay [20] was > 100 µM (inactive).
For the molecule `O=C(/C=C/c1ccccc1)CCC1C(=O)c2ccccc2C1=O`, the GI50 in assay [1] was > 100 µM (inactive); in [2], > 100 µM (inactive); in assay [3], > 100 µM (inactive); in assay [4] it was > 100 µM (inactive); in assay [5], 64.9 µM (inactive); in assay [6] it was > 100 µM (inactive). The GI50 in assay [7], in [8], in [9], in assay [10], in assay [11] and in [12] was > 100 µM (inactive) each time. Moreover, the GI50 in assay [13] is > 100 µM (inactive); in assay [14] it was 43.8 µM (inactive); in assay [15] it was > 100 µM (inactive); in assay [16], > 100 µM (inactive); in assay [17], > 100 µM (inactive); in assay [18], 31.3 µM (inactive). Besides, in [20], the GI50 was > 100 µM (inactive).
For `O=C(NNC(=O)c1cc2ccccc2[nH]1)c1cc2ccccc2[nH]1`, the GI50 in assay [1], in assay [2], in assay [3], in assay [4], in assay [5] and in [6] was > 100 µM (inactive) in each case. Besides, the GI50 in [7], in [8], in [11], in assay [12], in assay [13] and in assay [14] was > 100 µM (inactive) each time. Further, the GI50 in [15] was > 100 µM (inactive); in [16], 80 µM (inactive); in assay [17], 95.7 µM (inactive); in assay [18] it was > 100 µM (inactive); in assay [19], > 100 µM (inactive); in assay [20], > 100 µM (inactive).
